{"source": "patent US20030083375A1", "about": "“11Beta-fluoro 15beta-hydroxy PGF2alpha analogs as FP receptor antagonists” (priority 1997, published 2003)", "key": {"FP receptor [1]": {"biological_target": "T1, FP receptor (Rattus norvegicus, UniProt P43118)", "T1 construct": "Two cell lines containing the FP receptor have been extensively characterized by this method; host or cells: A7r5 rat thoracic aorta smooth muscle cells", "T1 sequence (P43118 whole entry)": "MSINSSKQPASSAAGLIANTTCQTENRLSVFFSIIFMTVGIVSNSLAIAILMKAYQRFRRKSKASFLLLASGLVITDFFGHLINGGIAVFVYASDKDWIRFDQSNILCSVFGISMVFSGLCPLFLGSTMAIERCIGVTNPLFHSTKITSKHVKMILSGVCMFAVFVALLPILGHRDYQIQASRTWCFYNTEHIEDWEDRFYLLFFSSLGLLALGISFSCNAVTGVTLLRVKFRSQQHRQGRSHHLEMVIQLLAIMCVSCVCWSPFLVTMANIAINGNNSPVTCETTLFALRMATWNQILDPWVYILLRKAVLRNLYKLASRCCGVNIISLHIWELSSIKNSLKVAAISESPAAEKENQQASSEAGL", "test": "Antagonism of fluprostenol-stimulated [3H]IPs production in A7r5 cells", "format": "cell-based", "method": "(§1) Confluent monolayer cultures of cells (in a standard 24-well tissue culture plate) expressing the FP receptor are exposed to [^3H]-myo-inositol (1.5 μCi in a volume of 0.5 ml DMEM culture medium supplemented with 2 mM L-glutamine and 10 μg/ml gentamicin sulfate) in the absence of serum, which causes net incorporation of the radioisotope into the phosphotidylinositol membrane lipids. After 24-32 hrs, the medium with the radioisotope is removed and the cells are rinsed once with DMEM/F-12 medium containing 10 mM LiCl (assay medium). Then 0.5 ml of assay medium is added to each well of cells, followed by addition of varying concentrations of an FP receptor agonist (or other test compound). Cells are exposed to the test agent for 30-120 min in a humidified incubator (95% air/5% CO2), maintained at 37° C. Then the assay medium is removed and 1 ml of 0.1 M formic acid is added to the cell monolayer to inactivate the phospholipase C release the radiolabelled products into the assay medium. The presence of LiCl during the agonist stimulation period inhibits phosphatases and permits the accumulation of radiolabelled inositol phosphates (IPs) which is measured by ion exchange chromatography.\nThe agonist-dependent production of IPs, which reflects the degree of receptor activation, is quantitatively measured for each well of cells in the 24-well plate by separating the negatively charged radiolabelled IPs from other minor radiolabelled species and free [^3H]-myo-inositol by anion exchange chromatography. This is accomplished by adding 0.9 ml of the cell lysate obtained as described above to a column packed with 1 ml of AG 1-X8 anion exchange resin in the formate form. The elution and separation of the radiolabelled IPs from the column consists of sequential additions to the column of: 1) 10 ml of water; 2) 8 ml of 50 mM ammonium formate; and 3) 4 ml of 1.2 M ammonium formate solution containing 0.1 M formic acid. The first two washes are discarded, and the third is collected in a scintillation vial, to which is added 15 ml of a water-accepting scintillation fluid. These samples, i.e., the radiolabelled IPs formed by the cells in response to stimulation by an FP prostaglandin receptor agonist or other test agent, is then measured by scintillation spectrometry on a beta-counter.\nThe dependence of the level of the [^3H]IPs production on agonist concentration is analyzed by standard pharmacological methods to determine the potency (EC50 value) and efficacy (maximum response; Emax) of the FP receptor agonist relative to a standard FP receptor agonist such as fluprostenol. […] The agonist stimulation is then continued for the standard time (30-120 min), after which the procedure for quenching the reaction, separating the [^3H]IPs, and anion exchange chromatography is identical to the procedure described above. A compound is considered to be an antagonist in this protocol if it inhibits the agonist-stimulated [^3H]IPs production relative to the production measured in the control experiment (performed in parallel), in which the solvent is substituted for the antagonist.\nTwo different antagonist protocols are employed: 1) the antagonist concentration is varied while holding the agonist concentration fixed at a concentration approximately 10 times the agonist EC50 value and 2) the antagonist concentration is fixed in a given experiment, with the agonist concentration varied, and several such experiments, each with a different, fixed antagonist concentration, are performed. […] Overall, the Ki and Kb values are synonymous and represent the antagonist potency of the antagonist at equilibrium."}, "FP receptor [2]": {"biological_target": "T1, FP receptor", "test": "Agonist stimulation of [3H]IPs production in A7r5 cells", "format": "cell-based", "method": "as §1\nThe agonist-dependent production of IPs, which reflects the degree of receptor activation, is quantitatively measured for each well of cells in the 24-well plate by separating the negatively charged radiolabelled IPs from other minor radiolabelled species and free [^3H]-myo-inositol by anion exchange chromatography. […] These samples, i.e., the radiolabelled IPs formed by the cells in response to stimulation by an FP prostaglandin receptor agonist or other test agent, is then measured by scintillation spectrometry on a beta-counter.\nThe dependence of the level of the [^3H]IPs production on agonist concentration is analyzed by standard pharmacological methods to determine the potency (EC50 value) and efficacy (maximum response; Emax) of the FP receptor agonist relative to a standard FP receptor agonist such as fluprostenol. […]"}, "human ocular FP receptor": {"biological_target": "T2, human ocular FP receptor (Homo sapiens, UniProt P43088)", "T2 construct": "expressed in transfected cells; host or cells: HEK-293 (human embryonic kidney)", "T2 sequence (P43088 whole entry)": "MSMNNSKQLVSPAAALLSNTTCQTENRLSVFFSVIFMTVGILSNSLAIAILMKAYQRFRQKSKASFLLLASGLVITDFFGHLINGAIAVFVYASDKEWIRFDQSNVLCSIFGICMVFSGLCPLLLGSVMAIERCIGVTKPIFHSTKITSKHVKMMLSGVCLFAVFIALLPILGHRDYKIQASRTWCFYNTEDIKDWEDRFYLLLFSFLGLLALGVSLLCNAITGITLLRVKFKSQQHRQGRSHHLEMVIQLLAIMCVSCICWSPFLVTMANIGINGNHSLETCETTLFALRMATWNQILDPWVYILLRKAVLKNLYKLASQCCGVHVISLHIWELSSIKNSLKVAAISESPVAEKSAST", "test": "Antagonism of fluprostenol-induced [3H]IPs production in HEK-293 cells expressing recombinant human ocular FP receptor", "format": "cell-based", "method": "as §1, with “Then the assay medium is removed and 1 ml of 0.1 M formic acid is added to the cell monolayer to inactivate the phospholipase C release the radiolabelled products into the assay medium.” left out\nThe agonist-dependent production of IPs, which reflects the degree of receptor activation, is quantitatively measured for each well of cells in the 24-well plate by separating the negatively charged radiolabelled IPs from other minor radiolabelled species and free [^3H]-myo-inositol by anion exchange chromatography. […]"}, "[3]": {"biological_target": "FP prostaglandin receptor (Homo sapiens, UniProt P43088)", "sequence (P43088 whole entry)": "as above", "test": "Selectivity for the FP prostaglandin receptor compared to other classes of prostaglandin receptors"}}, "note": "Read-outs that look alike come from different tables or passages of the source."}
{"smiles": "CCCCC[C@H](O)/C=C/[C@@H]1[C@@H](C/C=C\\CCCC(=O)N(C)C)[C@@H](O)C[C@H]1O", "note": "[PGF2α dimethyl amide, reference compound]", "values": [{"measurement": "Kb, mol/L (potency as antagonist of the FP receptor)", "setting": "FP receptor [1]; Schild analysis", "result": "Inactive"}]}
{"smiles": "O=C(O)CCC/C=C\\C[C@@H]1[C@@H](/C=C/[C@@H](O)COc2cccc(C(F)(F)F)c2)[C@H](O)C[C@@H]1O", "note": "(racemic) [fluprostenol]", "values": [{"measurement": "Agonist classification (maximum effect relative to full agonists)", "setting": "FP receptor [2]", "result": "full agonist"}]}
{"smiles": "CCCCC[C@H](O)/C=C/[C@@H]1[C@@H](C/C=C\\CCCCN(C)C)[C@@H](O)C[C@H]1O", "note": "[PGF2α dimethyl amine, reference compound]", "values": [{"measurement": "Kb, mol/L (potency as antagonist of the FP receptor)", "setting": "FP receptor [1]; Schild analysis", "result": "Inactive"}]}
{"smiles": "CCCCNC(=O)NS(=O)(=O)c1ccc(C)cc1", "note": "[Tolbutamide, reference compound]", "values": [{"measurement": "Kb, mol/L (potency as antagonist of the FP receptor)", "setting": "FP receptor [1]; Schild analysis", "result": "Inactive"}]}
{"smiles": "O=C(O)CCC/C=C\\C[C@@H]1[C@@H](/C=C/[C@H](O)C2Cc3ccccc3C2)[C@@H](F)C[C@@H]1O", "note": "[Compound III, (5Z,13E)-(9S,11S,15R)-9,15-Dihydroxy-11-fluoro-15-(2-indanyl)-16,17,18,19,20-pentanor-5,13-prostadienoic acid]", "values": [{"measurement": "Kb", "setting": "FP receptor [1]; Schild analysis, read-out: Kb, mol/L (potency as antagonist of the FP receptor)", "result": 250, "unit": "nM"}, {"measurement": "Ki", "setting": "FP receptor [1]; fixed fluprostenol concentration about 10 times the agonist EC50, read-out: Ki (method of FIG. 2, antagonist concentration varied)", "result": "426 ± 63", "unit": "nM"}, {"measurement": "Kb", "setting": "FP receptor [1]; fluprostenol agonist varied, fixed antagonist concentrations, n=4 experiments, read-out: Kb (Schild analysis)", "result": "285 ± 97", "unit": "nM"}, {"measurement": "Fold higher potency as FP receptor antagonist than phloretin", "setting": "FP receptor [1]; from Table 1", "result": "> 10", "unit": "fold"}, {"measurement": "Type of antagonism", "setting": "FP receptor [1]; shift of fluprostenol dose-response curves, maximal effect unaltered", "result": "competitive antagonist"}, {"measurement": "Agonist classification (maximum effect relative to full agonists)", "setting": "FP receptor [2]", "result": "partial agonist"}, {"measurement": "Antagonism of fluprostenol-induced [3H]IPs production", "setting": "human ocular FP receptor", "result": "behaved as an antagonist"}, {"measurement": "Selectivity for FP prostaglandin receptor versus other prostaglandin receptor classes", "setting": "[3]", "result": "relatively good selectivity"}]}
{"smiles": "O=C(O)CCC/C=C\\CC1C(O)CC(O)C1/C=C/C(O)COc1cccc(Cl)c1", "note": "(stereo not shown) [cloprostenol]", "values": [{"measurement": "Agonist classification (maximum effect relative to full agonists)", "setting": "FP receptor [2]", "result": "full agonist"}]}
